“Also recorded” adds a separate entry of the source.
Key:
[1] = test system: P388 murine leukemia cell lines; assay: In vitro proliferation of P388 cells (MTT); type: cell-based; details: 48-h exposure; for IC50: value in parentheses
Protocol: (§1) Discodermolide and discodermolide analogs were analyzed as to their effects on proliferation of A549 human adenocarcinoma and P388 murine leukemia cell lines. P388 cells were obtained from Dr. R. Camalier, National Cancer Institute, Bethesda, MD, and A549 cells were obtained from American Type Culture Collection, Rockville, MD. All cell lines were maintained in tissue culture medium (TCM; Roswell Park Memorial Institute RPMI 1640 supplemented with 100 U/mL penicillin, […], 60 […], 18 mM HEPES, 0.05 mg/mL gentamicin (Life Technologies, Gaithersburg, MD) and 10% fetal bovine serum) and cultured in plastic tissue culture flasks at 37° C. in humidified air containing 5% CO2. Stock cultures of P388 cells were subcultured 1:20 in fresh TCM every 2 to 3 days. Stock cultures of A549 cells were subcultured 1:10 every 3 to 4 days. To assess the antiproliferative effects of agents against the cells, 200 μL cultures (96-well tissue culture plates, Nunc, Denmark) were established at 1 ×10^5 cells/mL in TCM or TCM containing the test agent at 0.03-5.0 μg/mL. After 48-h exposures, P388 cells were enumerated using 3-[4,5-dimethylthiazol-2-yl]-2,5-diphenyltetrazolium bromide (MTT) as described in the literature (M. C. Alley, et al., Cancer Res. 48:589, 1988). A549 cells were enumerated in the same manner after 72 hours exposure. The results were expressed as percent inhibition compared to the negative (no drug) control. Positive drug controls of varying dilutions of 5-fluorouracil and adriamycin (Sigma Chemical Co., St Louis, MO) were included to monitor drug sensitivity of the cell line.
(§2) To quantitate the effects on cell proliferation and resulting IC50 values, 75 μL of warm growth media containing 5 mg/mL MTT is added to each well, cultures returned to the incubator, and left undisturbed for 3 hours. To spectrophotometrically quantitate formation of reduced formazan, plates are centrifuged (500×g, 10 minutes), culture fluids removed by aspiration, and 200 μL of acidified isopropanol (2 mL concentrated HCl /liter isopropanol) added per well. The absorbance of the resulting solutions is measured in a plate reader (TECAN Spectra SLT; TECAN U.S., Research Triangle Park, N.C.) at 570 nm and a 650 nm reference filter. The absorbance of test wells is divided by the absorbance of drug-free wells, and the concentration of agent that results in 50% of the absorbance of untreated cultures (IC50) is determined by linear regression of logit-transformed data (D. J. Finney, Statistical Method in Biological Assay, third ed., pp. 316-348, Charles Griffin Co., London, 1978). A linear relationship between tumor cell number and formazan production has been routinely observed over the range of cell densities observed in these experiments. The two standard drug controls (indicated above) are included in each assay as a check to monitor the drug sensitivity of each of the cell lines and IC50 values are determined for each drug-cell combination.

A549 human lung cells = assay: Cell cycle progression by flow cytometry; type: cell-based
Protocol: Cell cycle studies were initiated in order to pinpoint a specific phase within the cell cycle in which discodermolide analogs were exerting their antiproliferative effect. A549 human lung cells were used as cell cycle targets to compare the effects of discodermolide and discodermolide analogs on perturbation of the cell cycle. Cell cycle analyses were performed as follows: A549 cells were incubated at 37° C. in 5% CO2 in air in the presence or absence of varying concentrations of discodermolide or discodermolide analogs for 24 hr. Cells were harvested, fixed in ethanol, washed, and stained with 0.02 mg/mL of propidium iodide (P.I.) together with 0.1 mg/mL of RNAse A. Stained preparations were analyzed on a Coulter EPICS ELITE flow cytometer with 488 nm excitation. Fluorescence measurements and resulting DNA histograms were collected from at least 10,000 P.I. stained cells at an emission wavelength of 690 nm. Raw histogram data was further analyzed using a cell cycle analysis program (Multicycle, Phoenix Flow Systems).

[2] = test system: A549 human adenocarcinoma; assay: In vitro proliferation of A549 cells (MTT); type: cell-based; details: 72 hours exposure; for IC50: value in parentheses
Protocol: as §1, §2

[3] = test system: purified bovine brain tubulin; assay: Tubulin polymerization (optical density at 350 nm); type: biochemical; design: key to Purified tubulin polymerization by 10 μM / Purified tubulin polymerization at 10 μM: −: no effect; +/−: minimal or questionable effect; +: weak effect; ++: strong effect; +++: very strong effect equivalent to discodermolide; details: 10 μM compound; for Maximum polymerization relative to that induced by discodermolide / Purified tubulin polymerization at 10 μM / Purified tubulin polymerization by 10 μM: 1 mg/mL tubulin; for Purified tubulin polymerization at 10 μM / Purified tubulin polymerization by 10 μM: subjective rating; for Purified tubulin polymerization at 10 μM: Table 12; for Purified tubulin polymerization by 10 μM: Table 11
Protocol: (§3) Compounds were tested at 10 μM with 1 mg/mL tubulin. The temperature was varied during the course of the experiment as follows: the experiment was begun with an initial temperature of 4° C. and held for 1 minute; the temperature was then increased to 35° C. at a rate of 1° C./minute, held at 35° C. for 1 minute, decreased to 4° C. at a rate of 2° C/minute, and finally held at 4° C. for 14 minutes. The curves shown are for compounds: discodermolide (I); 2-desmethyldiscodermolide (II); 19-desaminocarbonyldiscodermolide (III); 2-epidiscodermolide (IV); and 3-deoxy-2A-discodermolide (VI).
as §3, with “C./minute,” for “C/minute,”, “for” for “for compounds:”, “8,21,23-hexahydrodiscodermolide (XII)” for “2-desmethyldiscodermolide (II); 19-desaminocarbonyldiscodermolide (III); 2-epidiscodermolide (IV);”, “7-deoxy-8,21,23-hexahydrodiscodermolide (XIII).” for “3-deoxy-2A-discodermolide (VI).”
Polymerization of purified bovine brain tubulin (Cytoskeleton Inc., Denver, Colo.) was followed by changes in the optical density of tubulin solutions at 350 nm in a Hitachi U-3010 spectrophotometer equipped with a SPR-10 electronic thermostatted cell holder. Stock solutions of tubulin were diluted on ice in G-PEM buffer (1 mM GTP, 80 mM PIPES, 1 mM EGTA, 0.5 mM magnesium chloride; pH 6.8) to a final concentration of 1 mg/mL. The instrument was zeroed on this solution at 4° C. Discodermolide, and its analogs, were then added to the tubulin solution to a final concentration of 10 μM, quickly mixed, and the absorbance monitored over a period of 61 minutes. Within this time the temperature of the thermoelectric cell holder was held at 4° C. for 1 minute, increased to 35° C. at a rate of 1° C./minute, reduced back to 4° C. at a rate of 2° C./minute, and held at 4° C. for an additional 14 minutes.

Row | Structure (SMILES) | IC50 P388 cells [1] [µg/mL] | IC50 [1] [nM] | Cell cycle effects (100 nM) (A549 human lung cells; 100 nM, 24 hr, A549) | IC50 A549 cells [2] [µg/mL] | IC50 [2] [nM] | Level of tubulin polymerization induced [3] | Stability of polymerized tubulin when held at 4° C. [3] | Maximum polymerization relative to that induced by discodermolide [3] | Purified tubulin polymerization at 10 μM [3] | Cell cycle effects (A549 human lung cells; concentration not given) | Purified tubulin polymerization by 10 μM [3] | Cell population accumulated in the G2/M phase (A549 human lung cells; 1000 nM, 24 hour incubation) | Cell cycle effects (A549 human lung cells; concentrations lower than 1000 nM)
1 | CCCCC(C)C(OC(N)=O)C(C)C(O)C(C)CC(C)=CC(C)C(O)C(C)CCC(O)CC1OC(=O)C(C)C(O)C1C (stereo not drawn) [8,21,23-Hexahydrodiscodermolide (XII), 8,21,23-hexahydrodiscodermolide] | 0.02 | 33.8 | small percent increase in the cells accumulated at the G2/M phase; also recorded: high percentage of apoptosis | 0.04 | 67.7 | strong | relatively stable | approximately 80% | +++ |  |  |  | 
2 | C=CC=CC(C)C(OC(N)=O)C(C)C(O)C(C)CC(C)=CC(C)C(O)C(C)C=CC(O)CC1OC(=O)CC(O)C1C (stereo not drawn) [2-Desmethyldiscodermolide (II), 2-desmethyldiscodermolide] | 0.1 | 172 |  | 0.07 | 120 | almost equivalent to those of the parent compound discodermolide | stable |  |  | very strong apoptotic (sub-G1 peak) effects as well as an increase in the percentage of cells residing in the G2/M phase | ++ |  | 
3 | C=C/C=C\[C@H](C)[C@H](OC(N)=O)[C@@H](C)[C@H](O)[C@@H](C)C/C(C)=C\[C@H](C)[C@@H](O)[C@@H](C)/C=C\[C@@H](O)C[C@@H]1OC(=O)[C@@H](C)[C@@H](O)[C@H]1C [2-Epidiscodermolide (IV), 2-epidiscodermolide] | 0.08 | 134 |  | 0.04 | 67 | low levels | relatively stable | 30-50% |  | Apoptosis and weak G2/M block | ++ |  | 
4 | C=CC=CC(C)C(O)C(C)C(O)C(C)CC(C)=CC(C)C(O)C(C)C=CC(O)CC1OC(=O)C(C)C(O)C1C (stereo not drawn) [19-Desaminocarbonyldiscodermolide (III), 19-desaminocarbonyldiscodermolide] | 0.07 | 128 |  | 0.045 | 74 | low levels | relatively stable | 30-50% |  | Strong apoptosis; moderate G2/M block | + |  | 
5 | CCCCC(C)C(OC(N)=O)C(C)C(O)C(C)CC(C)=CC(C)C(O)C(C)CCCCC1OC(=O)C(C)C(O)C1C (stereo not drawn) [7-deoxy-8,21,23-hexahydrodiscodermolide] | 0.18 | 309 |  | 0.22 | 377 | low levels | relatively stable | 39% | ++ |  |  | Approximately 50% | did not produce any cell cycle effects

— US6495594B2, “Biologically active analogs of discodermolide” (Harbor Branch Oceanographic Institution, Inc., priority 2000, dated 2002)
